According to ChEMBL document CHEMBL4028801, “A multifactorial approach to hepatobiliary transporter assessment enables improved therapeutic compound development” (Toxicol Sci, 2013):

Key:
[1] = target: ATP-binding cassette sub-family C member 3 (Homo sapiens, UniProt O15438); test: Inhibition of human MRP3 overexpressed in Sf9 insect cell membrane vesicles assessed as uptake of [3H]-estradiol-17beta-D-glucuronide in presence of ATP and GSH measured after 10 mins by membrane vesicle transport assay; format: ADME, cell-based
Chain of ATP-binding cassette sub-family C member 3 (O15438 whole entry): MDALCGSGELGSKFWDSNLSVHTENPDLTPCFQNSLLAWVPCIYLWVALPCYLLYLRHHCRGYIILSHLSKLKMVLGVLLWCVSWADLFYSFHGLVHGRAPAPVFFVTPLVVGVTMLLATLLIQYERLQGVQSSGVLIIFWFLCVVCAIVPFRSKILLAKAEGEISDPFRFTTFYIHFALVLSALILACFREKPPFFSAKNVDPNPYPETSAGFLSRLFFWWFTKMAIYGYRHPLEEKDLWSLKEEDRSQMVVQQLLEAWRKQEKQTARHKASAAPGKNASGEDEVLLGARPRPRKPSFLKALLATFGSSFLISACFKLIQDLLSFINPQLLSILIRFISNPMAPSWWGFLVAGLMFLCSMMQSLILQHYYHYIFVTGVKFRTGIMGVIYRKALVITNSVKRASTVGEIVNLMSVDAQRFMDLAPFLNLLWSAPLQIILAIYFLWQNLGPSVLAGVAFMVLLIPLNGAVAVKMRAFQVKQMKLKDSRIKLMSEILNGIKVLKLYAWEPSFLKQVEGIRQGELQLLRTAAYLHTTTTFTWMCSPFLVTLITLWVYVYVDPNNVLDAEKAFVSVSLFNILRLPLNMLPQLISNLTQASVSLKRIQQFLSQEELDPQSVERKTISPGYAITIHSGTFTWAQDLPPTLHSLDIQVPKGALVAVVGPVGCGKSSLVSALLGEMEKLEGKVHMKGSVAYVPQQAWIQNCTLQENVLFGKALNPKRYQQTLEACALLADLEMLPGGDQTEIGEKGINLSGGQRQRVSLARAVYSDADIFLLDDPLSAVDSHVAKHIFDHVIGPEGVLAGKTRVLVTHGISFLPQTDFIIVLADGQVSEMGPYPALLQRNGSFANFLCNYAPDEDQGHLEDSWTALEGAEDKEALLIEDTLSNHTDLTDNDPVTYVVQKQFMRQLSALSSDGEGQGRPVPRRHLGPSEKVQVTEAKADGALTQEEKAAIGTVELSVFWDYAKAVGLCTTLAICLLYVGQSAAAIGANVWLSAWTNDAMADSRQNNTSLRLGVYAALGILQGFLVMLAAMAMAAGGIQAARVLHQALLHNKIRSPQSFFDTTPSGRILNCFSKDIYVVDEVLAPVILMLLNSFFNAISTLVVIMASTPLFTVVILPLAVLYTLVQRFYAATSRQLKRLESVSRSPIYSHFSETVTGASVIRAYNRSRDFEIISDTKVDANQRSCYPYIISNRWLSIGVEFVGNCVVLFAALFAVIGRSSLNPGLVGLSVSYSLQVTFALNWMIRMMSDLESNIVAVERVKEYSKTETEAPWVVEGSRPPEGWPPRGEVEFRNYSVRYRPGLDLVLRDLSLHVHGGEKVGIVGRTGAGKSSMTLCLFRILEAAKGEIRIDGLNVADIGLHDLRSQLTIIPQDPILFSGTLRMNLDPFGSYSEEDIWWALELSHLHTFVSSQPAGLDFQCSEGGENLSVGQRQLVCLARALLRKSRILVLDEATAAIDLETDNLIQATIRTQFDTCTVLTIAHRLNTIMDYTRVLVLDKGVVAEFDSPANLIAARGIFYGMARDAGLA

[2] = target: ATP-binding cassette sub-family C member 2 (Homo sapiens, UniProt Q92887); test: Inhibition of human MRP2 overexpressed in Sf9 cell membrane vesicles assessed as uptake of [3H]-estradiol-17beta-D-glucuronide in presence of ATP and GSH measured after 20 mins by membrane vesicle transport assay
Chain of ATP-binding cassette sub-family C member 2 (Q92887 whole entry): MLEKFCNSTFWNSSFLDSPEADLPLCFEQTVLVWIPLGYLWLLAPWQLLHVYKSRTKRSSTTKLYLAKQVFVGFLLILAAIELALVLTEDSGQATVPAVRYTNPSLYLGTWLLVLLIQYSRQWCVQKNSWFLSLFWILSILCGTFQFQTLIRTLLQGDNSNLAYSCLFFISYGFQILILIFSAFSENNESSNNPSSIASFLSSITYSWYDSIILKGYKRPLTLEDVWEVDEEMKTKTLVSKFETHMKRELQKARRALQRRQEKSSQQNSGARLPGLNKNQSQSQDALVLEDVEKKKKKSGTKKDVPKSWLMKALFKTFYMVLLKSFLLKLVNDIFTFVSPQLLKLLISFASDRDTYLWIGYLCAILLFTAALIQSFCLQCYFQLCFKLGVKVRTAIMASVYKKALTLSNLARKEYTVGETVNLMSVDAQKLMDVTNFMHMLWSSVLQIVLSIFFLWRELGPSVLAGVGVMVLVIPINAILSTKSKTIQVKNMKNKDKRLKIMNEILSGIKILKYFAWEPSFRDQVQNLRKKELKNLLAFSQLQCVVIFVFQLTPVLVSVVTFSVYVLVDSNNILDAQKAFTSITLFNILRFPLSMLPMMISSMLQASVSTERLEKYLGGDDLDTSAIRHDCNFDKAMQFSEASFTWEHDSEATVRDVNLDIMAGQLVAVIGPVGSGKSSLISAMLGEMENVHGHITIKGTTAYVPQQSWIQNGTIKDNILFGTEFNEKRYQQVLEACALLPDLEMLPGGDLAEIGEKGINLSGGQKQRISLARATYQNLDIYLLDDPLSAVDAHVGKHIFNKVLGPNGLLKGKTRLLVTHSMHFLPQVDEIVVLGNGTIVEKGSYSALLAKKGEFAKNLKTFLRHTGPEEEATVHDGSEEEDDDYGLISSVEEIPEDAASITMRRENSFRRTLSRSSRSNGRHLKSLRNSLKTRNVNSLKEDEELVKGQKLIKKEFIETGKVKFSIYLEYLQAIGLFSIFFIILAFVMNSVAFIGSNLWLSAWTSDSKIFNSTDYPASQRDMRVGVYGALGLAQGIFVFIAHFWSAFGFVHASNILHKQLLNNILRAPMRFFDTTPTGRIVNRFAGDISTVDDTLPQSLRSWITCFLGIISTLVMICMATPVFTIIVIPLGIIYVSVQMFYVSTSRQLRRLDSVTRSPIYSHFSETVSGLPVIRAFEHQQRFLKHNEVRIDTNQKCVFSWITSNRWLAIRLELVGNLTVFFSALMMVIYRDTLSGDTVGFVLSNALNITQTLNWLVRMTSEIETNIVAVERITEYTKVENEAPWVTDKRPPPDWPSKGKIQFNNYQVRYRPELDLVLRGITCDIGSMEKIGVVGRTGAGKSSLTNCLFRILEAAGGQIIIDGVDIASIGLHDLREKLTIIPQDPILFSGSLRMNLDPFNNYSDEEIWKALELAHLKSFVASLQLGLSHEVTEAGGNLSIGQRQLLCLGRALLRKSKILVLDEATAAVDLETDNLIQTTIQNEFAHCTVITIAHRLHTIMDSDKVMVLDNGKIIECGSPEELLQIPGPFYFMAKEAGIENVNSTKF

[3] = Drug concentration at steady state in human at 5 to 80 mg, po QD after 24 hrs; format: ADME, organism-based; conditions: in vivo, read-out: Css
[4] = AUC in human at 5 to 80 mg, po QD after 24 hrs; format: ADME, organism-based; conditions: in vivo
[5] = target: T1, ATP-binding cassette sub-family C member 4 (Homo sapiens, UniProt O15439); test: Inhibition of human MRP4 overexpressed in Sf9 cell membrane vesicles assessed as uptake of [3H]-estradiol-17beta-D-glucuronide in presence of ATP and GSH measured after 20 mins by membrane vesicle transport assay; format: ADME, cell-based
T1 sequence (O15439 whole entry): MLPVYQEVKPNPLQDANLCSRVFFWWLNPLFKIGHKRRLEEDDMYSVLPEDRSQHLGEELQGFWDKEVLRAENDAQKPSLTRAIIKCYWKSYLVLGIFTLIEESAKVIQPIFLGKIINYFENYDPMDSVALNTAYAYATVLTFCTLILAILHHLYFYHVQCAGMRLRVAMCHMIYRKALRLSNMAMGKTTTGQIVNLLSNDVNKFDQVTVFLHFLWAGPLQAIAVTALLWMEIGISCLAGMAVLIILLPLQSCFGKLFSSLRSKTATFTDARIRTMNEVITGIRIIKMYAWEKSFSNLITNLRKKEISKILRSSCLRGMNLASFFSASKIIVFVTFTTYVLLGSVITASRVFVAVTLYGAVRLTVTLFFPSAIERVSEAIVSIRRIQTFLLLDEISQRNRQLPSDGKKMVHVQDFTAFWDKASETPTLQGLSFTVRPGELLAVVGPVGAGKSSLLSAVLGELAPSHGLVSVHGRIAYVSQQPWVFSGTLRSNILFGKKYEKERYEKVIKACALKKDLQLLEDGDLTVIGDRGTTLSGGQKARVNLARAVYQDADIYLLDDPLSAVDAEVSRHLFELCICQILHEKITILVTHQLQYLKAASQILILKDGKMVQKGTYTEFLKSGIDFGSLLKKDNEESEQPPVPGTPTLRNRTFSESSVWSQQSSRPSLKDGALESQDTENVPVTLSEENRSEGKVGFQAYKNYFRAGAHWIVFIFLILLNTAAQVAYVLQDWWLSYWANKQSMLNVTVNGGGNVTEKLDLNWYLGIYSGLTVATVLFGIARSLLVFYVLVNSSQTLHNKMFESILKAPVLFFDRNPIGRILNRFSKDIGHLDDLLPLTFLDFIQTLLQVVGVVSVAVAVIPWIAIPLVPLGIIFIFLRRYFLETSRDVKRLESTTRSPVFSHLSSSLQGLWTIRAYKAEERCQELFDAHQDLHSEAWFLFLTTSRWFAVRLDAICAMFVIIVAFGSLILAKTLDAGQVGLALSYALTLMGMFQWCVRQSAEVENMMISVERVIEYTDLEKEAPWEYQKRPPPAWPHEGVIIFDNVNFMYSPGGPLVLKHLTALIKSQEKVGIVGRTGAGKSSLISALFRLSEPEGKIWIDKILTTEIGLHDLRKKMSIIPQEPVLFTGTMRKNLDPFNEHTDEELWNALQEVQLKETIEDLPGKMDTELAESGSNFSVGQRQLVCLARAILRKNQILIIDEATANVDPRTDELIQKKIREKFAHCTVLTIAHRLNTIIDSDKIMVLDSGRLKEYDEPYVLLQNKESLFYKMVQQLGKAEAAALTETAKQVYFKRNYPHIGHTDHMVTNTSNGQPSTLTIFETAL

Bile salt export pump = Bile salt export pump (Homo sapiens, UniProt O95342); test: Inhibition of human BSEP overexpressed in Sf9 cell membrane vesicles assessed as uptake of [3H]-taurocholate in presence of ATP measured after 15 to 20 mins by membrane vesicle transport assay; format: ADME, cell-based
Chain of Bile salt export pump (O95342 whole entry): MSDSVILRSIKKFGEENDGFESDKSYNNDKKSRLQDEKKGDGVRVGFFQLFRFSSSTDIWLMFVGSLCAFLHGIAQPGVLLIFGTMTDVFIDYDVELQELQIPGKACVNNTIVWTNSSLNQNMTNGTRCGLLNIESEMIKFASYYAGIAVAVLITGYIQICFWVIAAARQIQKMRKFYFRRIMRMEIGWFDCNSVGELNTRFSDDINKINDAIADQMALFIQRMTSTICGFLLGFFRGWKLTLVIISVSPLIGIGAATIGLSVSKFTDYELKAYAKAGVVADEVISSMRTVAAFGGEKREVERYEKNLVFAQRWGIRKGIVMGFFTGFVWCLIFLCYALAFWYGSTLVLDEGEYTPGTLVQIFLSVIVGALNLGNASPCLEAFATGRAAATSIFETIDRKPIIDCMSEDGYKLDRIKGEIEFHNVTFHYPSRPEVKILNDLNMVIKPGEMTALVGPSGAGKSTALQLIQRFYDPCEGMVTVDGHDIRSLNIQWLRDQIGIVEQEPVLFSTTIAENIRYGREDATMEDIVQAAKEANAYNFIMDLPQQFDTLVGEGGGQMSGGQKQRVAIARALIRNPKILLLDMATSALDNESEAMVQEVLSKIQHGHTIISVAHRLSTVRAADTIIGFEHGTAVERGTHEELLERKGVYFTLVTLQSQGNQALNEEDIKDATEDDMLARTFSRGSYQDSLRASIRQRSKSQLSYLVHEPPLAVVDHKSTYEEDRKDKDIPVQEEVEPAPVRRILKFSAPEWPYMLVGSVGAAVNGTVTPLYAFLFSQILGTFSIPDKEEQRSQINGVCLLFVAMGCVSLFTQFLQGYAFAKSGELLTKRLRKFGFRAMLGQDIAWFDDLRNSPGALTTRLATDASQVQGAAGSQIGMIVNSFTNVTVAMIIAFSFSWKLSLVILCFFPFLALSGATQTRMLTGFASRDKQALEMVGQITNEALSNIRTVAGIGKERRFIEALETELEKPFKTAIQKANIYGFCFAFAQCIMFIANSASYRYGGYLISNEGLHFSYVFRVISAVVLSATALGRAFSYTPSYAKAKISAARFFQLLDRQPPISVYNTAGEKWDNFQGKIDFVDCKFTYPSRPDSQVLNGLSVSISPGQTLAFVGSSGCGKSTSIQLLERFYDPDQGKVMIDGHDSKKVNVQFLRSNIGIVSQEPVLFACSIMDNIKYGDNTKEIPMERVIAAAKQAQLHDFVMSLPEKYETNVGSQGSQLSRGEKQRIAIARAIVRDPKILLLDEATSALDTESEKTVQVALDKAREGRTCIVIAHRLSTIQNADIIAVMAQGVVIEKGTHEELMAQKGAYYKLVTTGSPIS

[6] = Ratio of drug concentration at steady state in human at 0.35 mg, po QD after 24 hrs to IC50 for human BSEP overexpressed in Sf9 insect cells; format: ADME, organism-based; conditions: in vivo
[7] = AUC in human at 0.35 mg, po QD after 24 hrs; format: ADME, organism-based; set-up: time < 24 hr, dose 0.35 mg, route oral; conditions: in vivo
[8] = Drug concentration at steady state in human at 0.35 mg, po QD after 24 hrs; format: ADME, organism-based; conditions: in vivo, read-out: Css
[9] = Ratio of drug concentration at steady state in human at 0.5 mg, po QD after 24 hrs to IC50 for human BSEP overexpressed in Sf9 insect cells; format: ADME, organism-based; conditions: in vivo
[10] = Drug concentration at steady state in human at 0.5 mg, po QD after 24 hrs; format: ADME, organism-based; conditions: in vivo, read-out: Css
[11] = AUC in human at 0.5 mg, po QD after 24 hrs; format: ADME, organism-based; set-up: time < 24 hr, dose 0.5 mg, route oral; conditions: in vivo
[12] = AUC in human at 2.5 to 10 mg, po QD after 24 hrs; format: ADME, organism-based; conditions: in vivo
[13] = Drug concentration at steady state in human at 2.5 to 10 mg, po QD after 24 hrs; format: ADME, organism-based; conditions: in vivo, read-out: Css
[14] = Ratio of drug concentration at steady state in human at 2.5 to 10 mg, po QD after 24 hrs to IC50 for human BSEP overexpressed in Sf9 insect cells; format: ADME, organism-based; conditions: in vivo
[15] = Ratio of drug concentration at steady state in human at 60 to 250 mg, po QD after 12 hrs to IC50 for human BSEP overexpressed in Sf9 insect cells; format: ADME, organism-based; conditions: in vivo
[16] = AUC in human at 60 to 250 mg, po QD after 12 hrs; format: ADME, organism-based; conditions: in vivo
[17] = Drug concentration at steady state in human at 60 to 250 mg, po QD after 12 hrs; format: ADME, organism-based; conditions: in vivo, read-out: Css
[18] = Drug concentration at steady state in human at 0.1 to 1 mg, po QD after 24 hrs; format: ADME, organism-based; conditions: in vivo, read-out: Css
[19] = Ratio of drug concentration at steady state in human at 0.1 to 1 mg, po QD after 24 hrs to IC50 for human MRP2 overexpressed in Sf9 insect cells; format: ADME, organism-based; conditions: in vivo
[20] = Ratio of drug concentration at steady state in human at 0.1 to 1 mg, po QD after 24 hrs to IC50 for human BSEP overexpressed in Sf9 insect cells; format: ADME, organism-based; conditions: in vivo
[21] = AUC in human at 0.1 to 1 mg, po QD after 24 hrs; format: ADME, organism-based; conditions: in vivo
clinical = conditions: human, in vivo, po
Homo sapiens = test: Drug concentration at steady state in human at 0.01 to 0.04 mg/kg, po after 24 hrs; format: ADME, organism-based; conditions: in vivo
[22] = AUC in human at 5 to 30 mg, po QD after 24 hrs; format: ADME, organism-based; conditions: in vivo
[23] = Drug concentration at steady state in human at 5 to 30 mg, po QD after 24 hrs; format: ADME, organism-based; conditions: in vivo, read-out: Css

CCC(C)(C)C(=O)O[C@H]1C[C@@H](C)C=C2C=C[C@H](C)[C@H](CC[C@@H]3C[C@@H](O)CC(=O)O3)[C@H]21 [SIMVASTATIN]
IC50 [1]: > 133 µM
IC50 [2]: > 133 µM
concentration at 24 h [3]: 9 nM
AUC at 24 h [4]: 0.212 µM·h
IC50 [5]: > 133 µM

C#C[C@@]1(OC(C)=O)CC[C@H]2[C@@H]3CCC4=CC(=O)CC[C@@H]4[C@H]3CC[C@@]21C
IC50 (Bile salt export pump): 36 µM
Ratio [6]: 0.00057
IC50 [1]: > 133 µM
IC50 [2]: > 133 µM
AUC at 24 h [7]: 0.494 µM·h
concentration at 24 h [8]: 21 nM
IC50 [5]: > 133 µM

C[C@]12C=CC(=O)N[C@@H]1CC[C@@H]1[C@@H]2CC[C@]2(C)[C@@H](C(=O)Nc3cc(C(F)(F)F)ccc3C(F)(F)F)CC[C@@H]12 [DUTASTERIDE]
IC50 (Bile salt export pump): 29.8 µM
IC50 [1]: > 133 µM
Ratio [9]: 0.00011
concentration at 24 h [10]: 3 nM
IC50 [2]: > 133 µM
AUC at 24 h [11]: 0.078 µM·h
IC50 [5]: > 133 µM

CCOC(=O)C1=C(C)NC(C)=C(C(=O)OC)C1c1cccc(Cl)c1Cl (configuration not stated) [FELODIPINE]
AUC at 24 h [12]: 0.107 µM·h
IC50 (Bile salt export pump): 69.7 µM
IC50 [1]: > 133 µM
concentration at 24 h [13]: 4 nM
IC50 [2]: > 133 µM
Ratio [14]: 0.00006
IC50 [5]: > 133 µM

CN1CCN(C2=Nc3ccccc3Oc3ccc(Cl)cc32)CC1.O=C(O)CCC(=O)O [LOXAPINE SUCCINATE]
IC50 (Bile salt export pump): 77 µM
IC50 [1]: > 133 µM
IC50 [2]: > 133 µM
Ratio [15]: 0.0004
AUC at 12 h [16]: 0.369 µM·h
concentration at 12 h [17]: 31 nM
IC50 [5]: > 133 µM

COC(=O)[C@H]1[C@H]2C[C@@H]3c4[nH]c5cc(OC)ccc5c4CCN3C[C@H]2C[C@@H](OC(=O)c2cc(OC)c(OC)c(OC)c2)[C@@H]1OC [RESERPINE]
concentration at 24 h [18]: 1 nM
IC50 [1]: > 133 µM
Ratio [19]: 0
IC50 [2]: 68.4 µM
Ratio [20]: 0.00007
AUC at 24 h [21]: 0.014 µM·h
IC50 [5]: > 133 µM

Cc1ncc2n1-c1ccc(Cl)cc1C(c1ccccc1F)=NC2 [MIDAZOLAM]
AUC at 24 h (clinical): 0.369 µM·h
Css (Homo sapiens): 15 nM

CCN(CC)CC#CCOC(=O)C(O)(c1ccccc1)C1CCCCC1 (configuration not stated) [OXYBUTYNIN]
IC50 [1]: > 133 µM
IC50 [2]: > 133 µM
AUC at 24 h [22]: 0.039 µM·h
concentration at 24 h [23]: 2 nM
IC50 [5]: > 133 µM
